Counter-ions that a name gives are not always drawn.
Test system: cerebellum
Experiment: Transcriptional profiling on Affymetrix GeneChips, single dose, naïve mice: cerebellum
Type: in vivo, C57BL/6 mice
Details: for Number of differentially expressed genes identified: Cerebellum: Naïve, Single Dose
Description: In vivo, DMF is rapidly metabolized to monomethyl fumarate (MMF).
Animals were exposed to CO2 and whole blood collected via cardiac puncture. Two 100 μl aliquots of whole blood were collected in 1.5 mL microcentrifuge tubes and snap frozen in liquid nitrogen. Peripheral (liver, spleen, kidney and jejunum) and CNS brain (cerebellum, hippocampus, striatum and cortex) tissues were harvested and snap frozen in liquid nitrogen, with special care taken to collect tissues of similar size and from the same location. All samples were stored at −80° C. until RNA extraction was conducted.
For RNA preparation, frozen tissues were placed in 2 mL RNAse-free 96-well blocks with 1.5 mL QIAzol Lysis Reagent (QIAgen) and a 3.2 mm stainless steel bead (BioSpec Products, Bartlesville, Okla.). Tissues were disrupted for four cycles of 45 seconds in a Mini-Beadbeater (Biospec Products). RNA was extracted in chloroform and the aqueous phase was mixed with an equal volume of 70% ethanol. Extracted RNA was applied to RNeasy 96 plates and purified by the spin method according to the manufacturer's protocol (RNeasy 96 Universal Tissue Protocol, QIAgen, Hilden Germany).
Automated sample amplifications and biotin labelings were carried out using the NuGEN Ovation RNA Amplification system V2 (Cat #3100), Ovation WB reagent (Cat #1300) and Encore Biotin module (Cat #4200) (NuGEN Technologies, Inc, San Carlos, Calif.) according to manufacturer's recommendations using an Arrayplex automated liquid handler (Beckman Coulter, Indianapolis, Ind.). Two micrograms of biotin labeled sscDNA probe were hybridized to Affymetrix GeneChip Affymetrix HT_MG-430_PM plate arrays with modified conditions as described in Allaire et al. Washing and staining of the hybridized arrays were completed as described in the GeneChip Expression analysis technical manual for HT plate arrays using the Genechip® Array Station (Affymetrix, Santa Clara, Calif.) with modifications as described in Allaire et al. The processed GeneChip® plate arrays were scanned using GeneTitan scanner (Affymetrix, Santa Clara, Calif.).
Affymetrix scans were subject to quality control (QC) measures. These tests included a visual inspection of the distribution of raw signal intensities and an assessment of RNA degradation, relative log expression (RLE), and normalized unsealed standard error (NUSE). All sample scans that passed these QC metrics were included in the analysis.
All CEL files were subjected to GC-content-based Robust Multi-array Average (GCRMA) normalization (version 2.20.0) (Irizarry R A, et al. Nucleic Acids Res 2003; 31:e15; Li C, et al. Genome Biol 2001; 2:[…]0032). Expression levels were log (base 2) transformed.
All calculations and analyses were carried out using R (version 2.11.1) and Bioconductor computational tools (Gentleman R. Springer Science+Business Media 2005).

[1] = 100 mpk, vs Vehicle, 2 h after last dosing
[2] = 100 mpk, vs Vehicle, 7 h after last dosing
[3] = 100 mpk, vs Vehicle, 12 h after last dosing
[4] = cerebellum, 100MMF-vs-Veh, 12 h

SMILES | Number of differentially expressed genes identified: Cerebellum (100 mpk DMF-vs-100 mpk MMF, 2 h after last dosing) | Number of differentially expressed genes identified: Cerebellum (100 mpk DMF-vs-100 mpk MMF, 7 h after last dosing) | Number of differentially expressed genes identified: Cerebellum (100 mpk DMF-vs-100 mpk MMF, 12 h after last dosing) | Number of differentially expressed genes identified: Cerebellum [1] | Number of differentially expressed genes identified: Cerebellum [2] | Number of differentially expressed genes identified: Cerebellum [3] | differentially expressed genes (cerebellum, 100DMF-vs-100MMF, 2 h) | differentially expressed genes (cerebellum, 100DMF-vs-100MMF, 7 h) | differentially expressed genes (cerebellum, 100DMF-vs-100MMF, 12 h) | differentially expressed genes (cerebellum, 100DMF-vs-Veh, 2 h) | differentially expressed genes (cerebellum, 100DMF-vs-Veh, 7 h) | differentially expressed genes (cerebellum, 100DMF-vs-Veh, 12 h) | FC Csnk2a1 (1419034_PM_at) (cerebellum, 100MMF-vs-Veh, 2 h) | FC Trak2 (1429607_PM_at) (cerebellum, 100MMF-vs-Veh, 2 h) | FC Hif3a (1425428_PM_at) [4] | FC Pnpla7 (1451361_PM_a_at) [4] | FC Vnn1 (1447845_PM_s_at) [4]
COC(=O)/C=C/C(=O)OC [DMF, dimethyl fumarate] | 0 | 0 | 0 | 0 | 0 | 0 | None | None | None | None | None | None | – | – | – | – | –
COC(=O)/C=C/C(=O)O [MMF, monomethyl fumarate] | – | – | – | 2 | 0 | 3 | – | – | – | – | – | – | −1.65 | −1.55 | 1.58 | 1.52 | 1.83

Reference: patent US20160115540A1, “PRODRUGS AND DRUGS” (Biogen MA Inc., priority 2013, published 2016)
